Experimental data: article PMC9669016, “First-in-human phase Ia study of the PI3Kα inhibitor CYH33 in patients with solid tumors” (Nature Communications, 2022)

Test system: patients with advanced solid tumors
Test: Phase Ia safety, tolerability, DLT/MTD (TRAEs graded by NCI-CTCAE v4.03)
Assay type: in vivo
Text: This is a phase I clinical study (ClinicalTrials.gov identifier: NCT03544905), including a phase Ia study of oral CYH33 monotherapy in patients with advanced solid tumors, and a phase Ib study of oral CYH33 monotherapy focused on several specific tumors. […] The phase Ia study included dose-escalation stage and dose-expansion stage. […] The secondary outcomes also included evaluation of changes in PD biomarkers in response to CYH33 treatment (including proteomics of blood specimens at baseline and during treatment, immunocyte subpopulation ratios and molecular markers, cell free DNA in peripheral blood, and blood glucose). However, in compliance with the local human genetic resource regulations and procedures, peripheral blood samples were not obtained for PD biomarker analysis, therefore, only fasting blood glucose was obtained and used as a PD biomarker for CYH33 treatment. The exploratory objective was the relationship between the efficacy of CYH33 treatment and tumor biomarker status.
An accelerated titration design (ATD) and an mTPI-2 design were adopted to guide toxicity monitoring and dose escalation. The target DLT rate was 30%, with the acceptable toxicity probability interval of (0.25, 0.35). For the first two preset doses of 1 mg and 5 mg CYH33 in the ATD phase, if there were no grade ≥2 TRAEs during the DLT observation period, 100% dose escalation was allowed in the subsequent dose group. After entering the mTPI-2 phase, the SMC guidance was followed to determine the dose level, dosing frequency, and number of subjects in the next dose group, based on the previously obtained safety and PK data for that dose group. If necessary, it was permitted to add an additional dose level between two explored dose levels for further investigation.
During the phase Ia study, the safe and probably effective dose will be delivered to the expansion cohort to further investigate the safety, tolerability and efficacy of this dose level, while the dose escalation study can be continued simultaneously. If necessary, it is permitted to insert a new dose level between two explored dose levels for exploration. The subjects to be enrolled in the expansion cohort are patients with advanced solid tumors with PIK3CA gene mutations. When there are two or more dose groups at dose expansion simultaneously, the allocation ratio of the number of subjects in each dose group should be as close as possible to the ratio of ORR in each dose group. In principle, when the cumulative ORR at a certain dose level is <10%, the number of subjects in this dose group will be determined by the SMC. A total of approximately 60 patients are expected to be enrolled in the whole phase Ia study.
The secondary endpoints included preliminary efficacy assessments based on ORR, PFS, DoR, DCR, and clinical benefit rate, assessed per RECIST 1.1,PK parameters for CYH33 and its metabolite I27, and changes in PD biomarkers in response to CYH33 treatment.

SMILES: COC(=O)Nc1cc(C(F)(F)F)c(-c2nc(N3CCOCC3)c3cc(CN4CCN(S(C)(=O)=O)CC4)cn3n2)cn1 [CYH33, methyl (5-(6-((4-(methylsulfonyl)piperazin-1-yl)methyl)−4-morpholinopyrrolo[2,1-f][1,2,4]triazin-2-yl)−4-(trifluoromethyl)pyridin-2-yl)carbamate]
- Blood glucose increased, Grade ≥ 3 TRAE (30 mg QD, n = 12): 0 n (%)
- Decreased appetite, Grade ≥ 3 TRAE (30 mg QD, n = 12): 0 n (%)
- Decreased appetite, all-grade TRAE (30 mg QD, n = 12): 4 (33.3) n (%)
- Diabetic ketosis, Grade ≥ 3 TRAE (30 mg QD, n = 12): 1 (8.3) n (%)
- Diarrhea, Grade ≥ 3 TRAE (30 mg QD, n = 12): 0 n (%)
- Diarrhea, all-grade TRAE (30 mg QD, n = 12): 2 (16.7) n (%)
- Dizziness, Grade ≥ 3 TRAE (30 mg QD, n = 12): 0 n (%)
- Electrocardiogram QT prolonged, Grade ≥ 3 TRAE (30 mg QD, n = 12): 0 n (%)
- Face oedema, Grade ≥ 3 TRAE (30 mg QD, n = 12): 0 n (%)
- Facial edema, all-grade TRAE (30 mg QD, n = 12): 4 (33.3) n (%)
- Fatigue, Grade ≥ 3 TRAE (30 mg QD, n = 12): 0 n (%)
- Fatigue, all-grade TRAE (30 mg QD, n = 12): 2 (16.7) n (%)
- Generalized oedema, Grade ≥ 3 TRAE (30 mg QD, n = 12): 1 (8.3) n (%)
- Grade ≥ 3 TRAEs in all patients (30 mg QD, n = 12): 7 (58.3) n (%)
- Hyperglycemia, Grade ≥ 3 TRAE (30 mg QD, n = 12): 7 (58.3) n (%)
- Hyperglycemia, all-grade TRAE (30 mg QD, n = 12): 11 (91.7) n (%)
- Hyponatremia, all-grade TRAE (30 mg QD, n = 12): 4 (33.3) n (%)
- Mouth ulceration, Grade ≥ 3 TRAE (30 mg QD, n = 12): 0 n (%)
- Nausea, Grade ≥ 3 TRAE (30 mg QD, n = 12): 0 n (%)
- Nausea, all-grade TRAE (30 mg QD, n = 12): 6 (50.0) n (%)
- Peripheral edema, Grade ≥ 3 TRAE (30 mg QD, n = 12): 0 n (%)
- Peripheral edema, all-grade TRAE (30 mg QD, n = 12): 4 (33.3) n (%)
- Rash, Grade ≥ 3 TRAE (30 mg QD, n = 12): 0 n (%)
- Rash, all-grade TRAE (30 mg QD, n = 12): 2 (16.7) n (%)
- TRAEs leading to death (30 mg QD, n = 12): 0 n (%)
- TRAEs leading to dose discontinuation (30 mg QD, n = 12): 1 (8.3) n (%)
- TRAEs leading to dose interruption (30 mg QD, n = 12): 10 (83.3) n (%)
- TRAEs leading to dose reduction (30 mg QD, n = 12): 0 n (%)
- TRAEs occurring in ≥ 10% of patients (30 mg QD, n = 12): 12 (100) n (%)
- Treatment-related serious adverse events (30 mg QD, n = 12): 1 (8.3) n (%)
- Vomiting, all-grade TRAE (30 mg QD, n = 12): 3 (25.0) n (%)
- Weight loss, all-grade TRAE (30 mg QD, n = 12): 4 (33.3) n (%)
- White blood cell count decreased, Grade ≥ 3 TRAE (30 mg QD, n = 12): 0 n (%)
- Blood glucose increased, Grade ≥ 3 TRAE (40 mg QD, n = 24): 0 n (%)
- Decreased appetite, Grade ≥ 3 TRAE (40 mg QD, n = 24): 1 (4.2) n (%)
- Decreased appetite, all-grade TRAE (40 mg QD, n = 24): 12 (50.0) n (%)
- Diabetic ketosis, Grade ≥ 3 TRAE (40 mg QD, n = 24): 0 n (%)
- Diarrhea, Grade ≥ 3 TRAE (40 mg QD, n = 24): 1 (4.2) n (%)
- Diarrhea, all-grade TRAE (40 mg QD, n = 24): 7 (29.2) n (%)
- Dizziness, Grade ≥ 3 TRAE (40 mg QD, n = 24): 1 (4.2) n (%)
- Electrocardiogram QT prolonged, Grade ≥ 3 TRAE (40 mg QD, n = 24): 0 n (%)
- Face oedema, Grade ≥ 3 TRAE (40 mg QD, n = 24): 1 (4.2) n (%)
- Facial edema, all-grade TRAE (40 mg QD, n = 24): 4 (16.7) n (%)
- Fatigue, Grade ≥ 3 TRAE (40 mg QD, n = 24): 1 (4.2) n (%)
- Fatigue, all-grade TRAE (40 mg QD, n = 24): 6 (25.0) n (%)
- Generalized oedema, Grade ≥ 3 TRAE (40 mg QD, n = 24): 0 n (%)
- Grade ≥ 3 TRAEs in all patients (40 mg QD, n = 24): 19 (79.2) n (%)
- Hyperglycemia, Grade ≥ 3 TRAE (40 mg QD, n = 24): 17 (70.8) n (%)
- Hyperglycemia, all-grade TRAE (40 mg QD, n = 24): 23 (95.8) n (%)
- Hyponatremia, all-grade TRAE (40 mg QD, n = 24): 2 (8.3) n (%)
- Mouth ulceration, Grade ≥ 3 TRAE (40 mg QD, n = 24): 1 (4.2) n (%)
- Mouth ulceration, all-grade TRAE (40 mg QD, n = 24): 5 (20.8) n (%)
- Nausea, Grade ≥ 3 TRAE (40 mg QD, n = 24): 0 n (%)
- Nausea, all-grade TRAE (40 mg QD, n = 24): 9 (37.5) n (%)
- Peripheral edema, Grade ≥ 3 TRAE (40 mg QD, n = 24): 4 (16.7) n (%)
- Peripheral edema, all-grade TRAE (40 mg QD, n = 24): 8 (33.3) n (%)
- Rash, Grade ≥ 3 TRAE (40 mg QD, n = 24): 1 (4.2) n (%)
- Rash, all-grade TRAE (40 mg QD, n = 24): 6 (25.0) n (%)
- TRAEs leading to death (40 mg QD, n = 24): 0 n (%)
- TRAEs leading to dose discontinuation (40 mg QD, n = 24): 2 (8.3) n (%)
- TRAEs leading to dose interruption (40 mg QD, n = 24): 19 (79.2) n (%)
- TRAEs leading to dose reduction (40 mg QD, n = 24): 5 (20.8) n (%)
- TRAEs occurring in ≥ 10% of patients (40 mg QD, n = 24): 23 (95.8) n (%)
- Treatment-related serious adverse events (40 mg QD, n = 24): 4 (16.7) n (%)
- Vomiting, all-grade TRAE (40 mg QD, n = 24): 6 (25.0) n (%)
- Weight loss, all-grade TRAE (40 mg QD, n = 24): 9 (37.5) n (%)
- White blood cell count decreased, Grade ≥ 3 TRAE (40 mg QD, n = 24): 1 (4.2) n (%)
- DLT rate (40 mg dose level, 1 out of 6 DLT evaluable patients): 16.7%
- patients with DLT: grade 3 hyperglycemia (40 mg, dose-escalation stage (19 patients)): 1
- patients with DLT: grade 3 hyperglycemia and grade 3 nausea (60 mg, dose-escalation stage (19 patients)): 2
- Blood glucose increased, Grade ≥ 3 TRAE (1–20 mg QD, n = 10): 0 n (%)
- Decreased appetite, Grade ≥ 3 TRAE (1–20 mg QD, n = 10): 0 n (%)
- Decreased appetite, all-grade TRAE (1–20 mg QD, n = 10): 3 (30.0) n (%)
- Diabetic ketosis, Grade ≥ 3 TRAE (1–20 mg QD, n = 10): 0 n (%)
- Diarrhea, Grade ≥ 3 TRAE (1–20 mg QD, n = 10): 0 n (%)
- Diarrhea, all-grade TRAE (1–20 mg QD, n = 10): 3 (30.0) n (%)
- Dizziness, Grade ≥ 3 TRAE (1–20 mg QD, n = 10): 0 n (%)
- Electrocardiogram QT prolonged, Grade ≥ 3 TRAE (1–20 mg QD, n = 10): 1 (10.0) n (%)
- Face oedema, Grade ≥ 3 TRAE (1–20 mg QD, n = 10): 0 n (%)
- Facial edema, all-grade TRAE (1–20 mg QD, n = 10): 0 n (%)
- Fatigue, Grade ≥ 3 TRAE (1–20 mg QD, n = 10): 0 n (%)
- Fatigue, all-grade TRAE (1–20 mg QD, n = 10): 1 (10.0) n (%)
